Data taken from the supplement of paper PMC10307832.

Columns and labels:
Experiment in all cases: relative viability (nuclei count vs DMSO), 5 days (fraction); higher = more cells survive
NCI-H596 = tested on: NCI-H596
Summary of the method: (§1)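 Lung cancer cell lines were seeded in 1536-well plates and dosed by pin tool the next day, with either a single drug or a fixed anchor-drug dose combined with five library-drug doses (not always all listed) spaced in √10 steps. Five days later, one step fixed the cells and stained their nuclei (final 0.05% Triton X-100, 1% formaldehyde, 1 ug/ml Hoechst), and nuclei were counted on 4× images. Relative viability is the nuclei count in treated wells divided by the count in vehicle wells, and each value is the median of duplicate plates.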

UMC-11 = tested on: UMC-11
Summary of the method: as §1

NCI-H1993 = tested on: NCI-H1993
Summary of the method: as §1

NCI-H23 = tested on: NCI-H23
Summary of the method: as §1

NCI-H1623 = tested on: NCI-H1623
Summary of the method: as §1

NCI-H1355 = tested on: NCI-H1355
Summary of the method: as §1

LCLC-97TM1 = tested on: LCLC-97TM1
Summary of the method: as §1

NCI-H322M = tested on: NCI-H322M
Summary of the method: as §1

NCI-H1703 = tested on: NCI-H1703
Summary of the method: as §1

NCI-H1299 = tested on: NCI-H1299
Summary of the method: as §1

NCI-H1648 = tested on: NCI-H1648
Summary of the method: as §1

Calu-6 = tested on: Calu-6
Summary of the method: as §1

IA-LM = tested on: IA-LM
Summary of the method: as §1

A549 = tested on: A549
Summary of the method: as §1

EBC-1 = tested on: EBC-1
Summary of the method: as §1

## CCN(CC)CCCCNc1ncc2cc(-c3cc(OC)cc(OC)c3)c(NC(=O)NC(C)(C)C)nc2n1 + CCNC(=O)c1noc(-c2cc(C(C)C)c(O)cc2O)c1-c1ccc(CN2CCOCC2)cc1 [Luminespib] (partner 0.01 µM)
NCI-H596; first compound 0.01 µM
  relative viability: 1.03
NCI-H596; first compound 0.03162 µM
  relative viability: 1.05
NCI-H596; first compound 0.1 µM
  relative viability: 1.02
NCI-H596; first compound 0.3162 µM
  relative viability: 1.01
NCI-H596; first compound 1 µM
  relative viability: 0.621
UMC-11; first compound 0.01 µM
  relative viability: 1.05
UMC-11; first compound 0.03162 µM
  relative viability: 1.08
UMC-11; first compound 0.1 µM
  relative viability: 1.25
UMC-11; first compound 0.3162 µM
  relative viability: 1.04
UMC-11; first compound 1 µM
  relative viability: 0.94
NCI-H1993; first compound 0.01 µM
  relative viability: 0.401
NCI-H1993; first compound 0.03162 µM
  relative viability: 0.715
NCI-H1993; first compound 0.1 µM
  relative viability: 0.771
NCI-H1993; first compound 0.3162 µM
  relative viability: 0.97
NCI-H1993; first compound 1 µM
  relative viability: 0.666
NCI-H23; first compound 0.01 µM
  relative viability: 0.214
NCI-H23; first compound 0.03162 µM
  relative viability: 0.203
NCI-H23; first compound 0.1 µM
  relative viability: 0.241
NCI-H23; first compound 0.3162 µM
  relative viability: 0.202
NCI-H23; first compound 1 µM
  relative viability: 0.205
NCI-H1623; first compound 0.01 µM
  relative viability: 0.605
NCI-H1623; first compound 0.03162 µM
  relative viability: 0.54
NCI-H1623; first compound 0.1 µM
  relative viability: 0.443
NCI-H1623; first compound 0.3162 µM
  relative viability: 0.607
NCI-H1623; first compound 1 µM
  relative viability: 0.722
NCI-H1355; first compound 0.01 µM
  relative viability: 0.795
NCI-H1355; first compound 0.03162 µM
  relative viability: 0.824
NCI-H1355; first compound 0.1 µM
  relative viability: 0.704
NCI-H1355; first compound 0.3162 µM
  relative viability: 0.738
NCI-H1355; first compound 1 µM
  relative viability: 0.649
LCLC-97TM1; first compound 0.01 µM
  relative viability: 0.743
LCLC-97TM1; first compound 0.03162 µM
  relative viability: 0.867
LCLC-97TM1; first compound 0.1 µM
  relative viability: 1.02
LCLC-97TM1; first compound 0.3162 µM
  relative viability: 0.818
LCLC-97TM1; first compound 1 µM
  relative viability: 0.775
NCI-H322M; first compound 0.01 µM
  relative viability: 0.884
NCI-H322M; first compound 0.03162 µM
  relative viability: 0.854
NCI-H322M; first compound 0.1 µM
  relative viability: 0.859
NCI-H322M; first compound 0.3162 µM
  relative viability: 0.988
NCI-H322M; first compound 1 µM
  relative viability: 0.799

## O=c1cc(-c2cccc3c2Sc2ccccc2S3)oc(N2CCOCC2)c1 + O=C(c1cc(Cc2n[nH]c(=O)c3ccccc23)ccc1F)N1CCN(C(=O)C2CC2)CC1 [Olaparib] (partner 8 µM)
NCI-H596; first compound 0.08 µM
  relative viability: 0.664
NCI-H596; first compound 0.253 µM
  relative viability: 0.631
NCI-H596; first compound 0.8 µM
  relative viability: 0.504
NCI-H596; first compound 2.53 µM
  relative viability: 0.587
NCI-H596; first compound 8 µM
  relative viability: 0.585
NCI-H1703; first compound 0.08 µM
  relative viability: 0.314
NCI-H1703; first compound 0.253 µM
  relative viability: 0.445
NCI-H1703; first compound 0.8 µM
  relative viability: 0.406
NCI-H1703; first compound 2.53 µM
  relative viability: 0.246
NCI-H1703; first compound 8 µM
  relative viability: 0.227
UMC-11; first compound 0.08 µM
  relative viability: 0.365
UMC-11; first compound 0.253 µM
  relative viability: 0.74
UMC-11; first compound 0.8 µM
  relative viability: 0.325
UMC-11; first compound 2.53 µM
  relative viability: 0.344
UMC-11; first compound 8 µM
  relative viability: 0.42
NCI-H1299; first compound 0.08 µM
  relative viability: 0.951
NCI-H1299; first compound 0.253 µM
  relative viability: 1.05
NCI-H1299; first compound 0.8 µM
  relative viability: 1.04
NCI-H1299; first compound 2.53 µM
  relative viability: 1.02
NCI-H1299; first compound 8 µM
  relative viability: 0.909
NCI-H1648; first compound 0.253 µM
  relative viability: 1.01
NCI-H1648; first compound 0.8 µM
  relative viability: 0.781
NCI-H1648; first compound 8 µM
  relative viability: 1.2
Calu-6; first compound 0.08 µM
  relative viability: 0.63
Calu-6; first compound 0.253 µM
  relative viability: 0.636
Calu-6; first compound 0.8 µM
  relative viability: 0.601
Calu-6; first compound 2.53 µM
  relative viability: 0.599
Calu-6; first compound 8 µM
  relative viability: 0.549
NCI-H1993; first compound 0.08 µM
  relative viability: 1.05
NCI-H1993; first compound 0.253 µM
  relative viability: 1.1
NCI-H1993; first compound 0.8 µM
  relative viability: 0.986
NCI-H1993; first compound 2.53 µM
  relative viability: 0.965
NCI-H1993; first compound 8 µM
  relative viability: 1.12
IA-LM; first compound 0.08 µM
  relative viability: 0.848
IA-LM; first compound 0.253 µM
  relative viability: 1.07
IA-LM; first compound 0.8 µM
  relative viability: 0.934
IA-LM; first compound 2.53 µM
  relative viability: 0.796
IA-LM; first compound 8 µM
  relative viability: 0.866
NCI-H23; first compound 0.08 µM
  relative viability: 0.313
NCI-H23; first compound 0.253 µM
  relative viability: 0.309
NCI-H23; first compound 0.8 µM
  relative viability: 0.24
NCI-H23; first compound 2.53 µM
  relative viability: 0.269
NCI-H23; first compound 8 µM
  relative viability: 0.268
NCI-H1355; first compound 0.08 µM
  relative viability: 0.801
NCI-H1355; first compound 0.253 µM
  relative viability: 0.916
NCI-H1355; first compound 0.8 µM
  relative viability: 0.65
NCI-H1355; first compound 2.53 µM
  relative viability: 0.717
NCI-H1355; first compound 8 µM
  relative viability: 0.573
A549; first compound 0.08 µM
  relative viability: 0.224
A549; first compound 0.253 µM
  relative viability: 0.348
A549; first compound 0.8 µM
  relative viability: 0.277
A549; first compound 2.53 µM
  relative viability: 0.354
A549; first compound 8 µM
  relative viability: 0.363
LCLC-97TM1; first compound 0.08 µM
  relative viability: 0.404
LCLC-97TM1; first compound 0.253 µM
  relative viability: 0.555
LCLC-97TM1; first compound 0.8 µM
  relative viability: 0.463
LCLC-97TM1; first compound 2.53 µM
  relative viability: 0.31
LCLC-97TM1; first compound 8 µM
  relative viability: 0.378
EBC-1; first compound 0.08 µM
  relative viability: 0.618
EBC-1; first compound 0.253 µM
  relative viability: 0.831
EBC-1; first compound 0.8 µM
  relative viability: 0.732
EBC-1; first compound 2.53 µM
  relative viability: 0.619
EBC-1; first compound 8 µM
  relative viability: 0.324
NCI-H322M; first compound 0.08 µM
  relative viability: 0.523
NCI-H322M; first compound 0.253 µM
  relative viability: 0.751
NCI-H322M; first compound 0.8 µM
  relative viability: 0.746
NCI-H322M; first compound 2.53 µM
  relative viability: 0.811
NCI-H322M; first compound 8 µM
  relative viability: 0.729
